Values joined by “and” are separate entries in the source; they are usually repeats but may differ in a detail not shown here. Equal entries are not always repeated. Where two headings read alike, the source gives them in different places. Blank lines part the entries; values can stand above or below the molecule they belong to.
Legend:
[1] = test system: P-gp; conditions: cited from earlier work
[2] = biological target: T1, OATP1B1 (Homo sapiens, UniProt Q9Y6L6); test: Inhibition of OATP1B1-mediated [3H]-E217βG accumulation in HEK293-OATP1B1 cells; format: cell-based
T1 sequence (Q9Y6L6 1-691): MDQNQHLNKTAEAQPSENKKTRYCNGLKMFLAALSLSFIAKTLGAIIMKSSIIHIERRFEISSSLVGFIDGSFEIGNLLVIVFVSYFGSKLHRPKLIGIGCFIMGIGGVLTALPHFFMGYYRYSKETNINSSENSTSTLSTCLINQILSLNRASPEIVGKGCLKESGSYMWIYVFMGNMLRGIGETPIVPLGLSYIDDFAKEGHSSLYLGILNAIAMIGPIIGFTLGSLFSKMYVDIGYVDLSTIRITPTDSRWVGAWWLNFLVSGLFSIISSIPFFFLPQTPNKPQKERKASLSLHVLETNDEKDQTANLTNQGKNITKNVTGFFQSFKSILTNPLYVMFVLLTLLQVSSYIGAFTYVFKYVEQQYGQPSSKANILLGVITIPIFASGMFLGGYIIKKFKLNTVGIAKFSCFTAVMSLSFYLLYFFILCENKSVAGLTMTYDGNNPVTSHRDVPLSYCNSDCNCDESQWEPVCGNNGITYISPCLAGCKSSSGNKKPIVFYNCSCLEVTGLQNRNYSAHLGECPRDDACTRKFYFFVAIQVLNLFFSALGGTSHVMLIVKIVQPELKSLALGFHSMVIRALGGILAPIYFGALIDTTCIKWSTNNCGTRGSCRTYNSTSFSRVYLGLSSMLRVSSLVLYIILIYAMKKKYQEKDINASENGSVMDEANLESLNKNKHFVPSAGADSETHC

[3] = biological target: T2, OATP1B3 (Homo sapiens, UniProt Q9NPD5); conditions: cited from earlier work
T2 sequence (Q9NPD5 1-702): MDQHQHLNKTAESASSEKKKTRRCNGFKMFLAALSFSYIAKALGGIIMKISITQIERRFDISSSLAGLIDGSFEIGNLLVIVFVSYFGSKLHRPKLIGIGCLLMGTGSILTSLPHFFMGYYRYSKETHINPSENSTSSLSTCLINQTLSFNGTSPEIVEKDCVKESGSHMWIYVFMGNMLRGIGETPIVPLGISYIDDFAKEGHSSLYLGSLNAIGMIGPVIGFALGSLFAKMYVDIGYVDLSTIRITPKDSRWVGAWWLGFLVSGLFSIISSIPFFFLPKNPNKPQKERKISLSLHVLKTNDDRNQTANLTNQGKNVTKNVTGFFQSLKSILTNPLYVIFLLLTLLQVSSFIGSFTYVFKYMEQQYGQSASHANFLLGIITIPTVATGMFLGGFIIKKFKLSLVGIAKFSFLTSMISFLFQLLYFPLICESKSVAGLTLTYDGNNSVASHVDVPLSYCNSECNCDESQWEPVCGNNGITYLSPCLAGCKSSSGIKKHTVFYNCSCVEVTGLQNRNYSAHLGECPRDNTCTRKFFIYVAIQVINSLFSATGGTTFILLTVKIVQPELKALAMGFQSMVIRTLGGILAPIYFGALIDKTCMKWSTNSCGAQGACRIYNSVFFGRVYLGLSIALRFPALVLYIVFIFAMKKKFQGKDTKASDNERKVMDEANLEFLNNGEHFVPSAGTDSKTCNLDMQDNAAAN

[4] = cited from earlier work
[5] = Estimation of Iin,max; parameters: species or system human; conditions: 960 mg; faFg = 1; Eq. 4
[6] = biological target: T1, OATP1B1; conditions: 10 μM vemurafenib, aqueous buffer; cited from earlier work
[7] = cited from earlier work; remark: listed apart in the source
[8] = Vemurafenib PBPK model parameters; parameters: species or system human
[9] = biological target: T2, OATP1B3; test: Inhibition of OATP1B3-mediated [3H]-CCK-8 accumulation in HEK293-OATP1B3 cells; format: cell-based
[10] = test system: Caco-2 cell monolayers; conditions: cited from earlier work; for Reference Papp,caco-2 (7.4:7.4): ref Simcyp library value
[11] = cited from earlier work; for Aqueous solubility: highest/maximum aqueous solubility
[12] = biological target: T1, OATP1B1; conditions: read-out: Apparent Km of transport by OATP1B1; cited from earlier work
[13] = IC50,total against OATP1B1, 100% human plasma (pH 7.4), [3H]-E217βG 5 μM, 3 min, HEK293-OATP1B1
[14] = vemurafenib 150 μM in human plasma

Molecule: C[C@H]1O[C@@H](O[C@H]2[C@@H](O)C[C@H](O[C@H]3[C@@H](O)C[C@H](O[C@H]4CC[C@@]5(C)[C@H](CC[C@@H]6[C@@H]5C[C@@H](O)[C@]5(C)[C@@H](C7=CC(=O)OC7)CC[C@]65O)C4)O[C@@H]3C)O[C@@H]2C)C[C@H](O)[C@@H]1O [digoxin]
- Mean terminal half-life ([1]; single dose of digoxin alone): 35.0 h
- Mean terminal half-life ([1]; single dose of digoxin co-administered with vemurafenib): 56.4 h

- IC50 [2, 13]: 2.1 µM
- IC50 ([2]; read-out: Estimated IC50,unbound,OATP1B1, IC50,total 2.1 μM × fu,plasma 0.116): 0.24 µM
Molecule: CO[C@H]1/C=C/O[C@@]2(C)Oc3c(C)c(O)c4c(O)c(c(/C=N/N5CCN(C)CC5)c(O)c4c3C2=O)NC(=O)/C(C)=C\C=C\[C@H](C)[C@H](O)[C@@H](C)[C@@H](O)[C@@H](C)[C@H](OC(C)=O)[C@@H]1C [rifampicin]

Molecule: Cholecystokinin 8 [CCK-8]
- Km [3]: ~3.8 µM

- Iin,max (estimated total maximum plasma concentration at the inlet to the liver) [5]: 132 µM and 132.5 µM
- IC50 [2, 13]: 175 µM
- Effect on OATP1B1-mediated transport vs vehicle control ([2]; vemurafenib 0.78 μM in HBSS buffer (pH 7.4), protein-free, E217βG […], 2 min): does not affect
- OATP1B1-mediated transport remaining [2, 14]: 60.2 % of control
- OATP1B1-mediated [3H]-E217βG transport ([2]; vemurafenib 500 μM in 100% human plasma, E217βG 5 μM, 3 min): 0.38 ± 0.1 fold of control
- Vd ([8]; human, oral, 960 mg): 0.9 L/kg
- CLR (renal clearance) ([8]; set from 0.97% of oral dose recovered in urine as parent): 0.01787 L/h
- IC50 ([9]; IC50,total against OATP1B3, 100% human plasma (pH 7.4), [3H]-CCK-8 1 μM, 3 min, HEK293-OATP1B3): 231 µM
- IC50 at 3 min ([9]; human, HEK293 cells over-expressing OATP1B3 (HEK293-OATP1B3), pH 7.4, probe [3H]-CCK-8 (1 μM), IC50,total against OATP1B3, 100% human plasma (pH 7.4), [3H]-CCK-8 1 μM, 3 min, HEK293-OATP1B3): 232 ± 26 µM
- Effect on OATP1B3-mediated transport vs vehicle control ([9]; vemurafenib 0.78 μM in HBSS buffer (pH 7.4), protein-free, CCK-8 1 μM, 3 min): does not affect
- OATP1B3-mediated transport remaining [9, 14]: 72.1 % of control
- OATP1B3-mediated [3H]-CCK-8 transport ([9]; vemurafenib 500 μM in 100% human plasma, CCK-8 1 μM, 3 min): 0.13 ± 0.04 fold of control
Molecule: CCCS(=O)(=O)Nc1ccc(F)c(C(=O)c2c[nH]c3ncc(-c4ccc(Cl)cc4)cc23)c1F [vemurafenib]
- Time to steady state ([4]; 960 mg BID multiple dosing): 15 to 21 days
- AUC0–8 h accumulation, day 15 vs day 1 ([4]; 960 mg BID): 23.2 ± 16.5 fold
- CLpo [4]: 2.67 (53.5) L/h, CV%
- Median accumulation ratio [4]: 7.36
- Oral dose recovered in urine as parent [4]: 0.97%
- Time to steady state for most patients [4]: ≤ 22 days
- ka, absorption rate constant ([4]; oral, population pharmacokinetic analysis): 0.19 h⁻¹
- Decrease of OATP1B1-mediated [3H]-E217βG transport [6]: ~ 75% and 75%
- Uptake in OATP1B3-overexpressing cells vs vehicle control cells [3]: ~ 1.5 fold
- Blood-to-plasma ratio (RB) ([7]; [14C]-vemurafenib): 0.58
- Protein bound in human plasma [7]: > 99%
- Unbound fraction in human plasma ([7]; independent of concentration 0.5–100 μM): 0.0014
- Passive permeability coefficient in Caco-2 cell monolayers ([10]; ranitidine as reference compound): 2.9 10^−6 cm/s
- pKa (first) ([11]; diprotic acid): 7.9
- pKa (second) ([11]; diprotic acid): 11.1
- Aqueous solubility [11]: 0.78 µM
- Aqueous solubility ([11]; listed as Vemurafenib): ~ 0.78 μM
- Log PO:W ([11]; neutral species octanol:buffer partition coefficient): 3

Molecule: C[C@]12CC[C@@H]3c4ccc(O)cc4CC[C@H]3[C@@H]1CC[C@@H]2O[C@@H]1O[C@H](C(=O)O)[C@@H](O)[C@H](O)[C@H]1O [E217βG, estradiol 17 β-D-glucuronide]
- Km [12]: ~8.3 µM
- fu (reported protein binding) [7]: 0.39

Molecule: CN/C(=N/CCSCc1nc[nH]c1C)NC#N [cimetidine]
- Reference Papp,caco-2 (7.4:7.4) [10]: 4 10^−6 cm/s

Molecule: CNC(=C[N+](=O)[O-])NCCSCc1ccc(CN(C)C)o1 [ranitidine]
- Reference Papp,caco-2 (7.4:7.4) [10]: 1.2 10^−6 cm/s

Source: publication PMC7750294 (Journal of pharmaceutical sciences, 2020)
